Test results reported in patent publication US20250195461A1, “Fibrate Compositions for Treating Inflammation and Neuroinflammation” (TRx Biosciences Limited, priority 2022, published 2025).

Experiment: Miscibility / self-emulsification in dissolution media modelling ICH dissolution testing
Format: physicochemical
Settings: 1 g of 100% or 75% preparation in 1 L PBS with […] curcumin, 37° C., 300 rpm 10 min, then 10 min without stirring
Protocol: To assess whether oleic acid could self-emulsify at the concentrations used in the disclosed pharmaceutical compositions, experiments was performed that were designed to model dissolution testing according to International Council for Harmonisation (ICH) guidelines. One liter of a dissolution media comprising phosphate buffered saline (PBS) and 2.5% curcumin was warmed to 37° C. and constant stirring at 300 rpm maintained. Curcumin was added as a coloring agent and was very effective at visualizing the distribution of lipids through the dissolution media. Miscibility experiments were performed using two concentrations of oleic acid nominally above the CMC concentration for this fatty acid. In one series of experiments, 1 g of 100% oleic acid was added to the dissolution media. The control compound was 1 g of 100% MAISINE™ CC. In a second series of experiments 1 g of 75% oleic acid (diluted with 250 mg of MAISINE™ CC) was added to the dissolution media. The control compound was 1 g of 75% MAISINE™ CC. The miscibility of oleic acid and MAISINE™ CC was assessed by observing the dissolution media for 10 minutes with constant stirring and then 10 minutes without stirring. Photographs were taken at time 0, 1, 2, 3, 4, 5 and 10 minutes during the stirring phase and 2, 4 and 10 minutes after stirring ceased.

With `CCCCCCCC/C=C\CCCCCCCC(=O)O` [oleic acid] the “miscibility in dissolution media” value was “not miscible”.

Experiment: not given
Settings: cited from earlier work

Point of comparison: `CC(C)(Oc1ccc(Cl)cc1)C(=O)OCCOC(=O)c1cccnc1` [etofibrate], “log P” value 3.5. Against it:
- CC(C)(Oc1ccc(CCNC(=O)c2ccc(Cl)cc2)cc1)C(=O)O [bezafibrate] — higher, 4.0
- CC(C)(Oc1ccc(C2CC2(Cl)Cl)cc1)C(=O)O (centres unmarked) [ciprofibrate] — within 0.2 log units, 3.6
- CCC(C)(Oc1ccc(C2(c3ccc(OC(C)(CC)C(=O)O)cc3)CCCCC2)cc1)C(=O)O (centres unmarked) [clinofibrate] — higher, 7.5
- CCOC(=O)C(C)(C)Oc1ccc(Cl)cc1 [clofibrate] — within 0.2 log units, 3.4
- CN(C)C(=O)CCCOC(=O)C(C)(C)Oc1ccc(Cl)cc1 [clofibride] — lower, 2.8
- CC(C)(Oc1ccc(C(=O)c2ccc(Cl)cc2)cc1)C(=O)O [fenofibric acid] — higher, 4.4
- Cc1ccc(C)c(OCCCC(C)(C)C(=O)O)c1 [gemfibrozil] — higher, 4.4
- CC(C)(Oc1ccc(C2CCCc3ccccc32)cc1)C(=O)O (centres unmarked) [nafenopin] — higher, 4.9
- CC(C)(Oc1ccc(Cl)cc1)C(=O)OCCCOC(=O)c1cccnc1 [ronifibrate] — higher, 3.9
- CC(C)(Oc1ccc(Cl)cc1)C(=O)OCCCOC(=O)C(C)(C)Oc1ccc(Cl)cc1 [simfibrate] — higher, 6.2

Experiment: not given
Settings: reported value; cited from earlier work

Point of comparison: `CCCCCCCCCCCCCCCCCC(=O)[O-].[Na+]` [sodium stearate], “critical micellar concentration (CMC)” value 0.071 mM. Against it:
- CCCCCCCC/C=C\CCCCCCCC(=O)O [oleic acid] — 32-fold higher, 2.3 mM
